Source: patent publication US9832994B2, “Thymol and totarol antibacterial composition” (COLGATE-PALMOLIVE COMPANY, priority 2011, dated 2017)

Columns and labels:
[1] = test system: E. coli; test: Minimum Inhibition Concentration (MIC) and Fractional Inhibitory Concentration (FIC) against E. coli; assay type: cell-based; conditions: Escherichia coli, single active, tryptic soy broth, 96 well plate, 16-24 hours at 37° C
Method: (§1) Minimum Inhibition Concentration (MIC) Serial dilutions of the active are combined with tryptic soy broth and 0.1 optical density of bacteria in a 96 well plate. The optical density of the mixture is measured after 16-24 hours at 37° C. An increase in optical density represents bacterial growth. The plate is analyzed to determine the minimum concentration needed to inhibit growth of bacteria. Numbers are reported in ppm. The MIC values are determined for thymol and totarol against E. Coli and S. aureus. The MIC dose response assay is conducted just as the MIC, however, one active's concentration is kept constant and the other active's concentration follows a two-fold serial dilution. Fractional Inhibition Concentration (FIC) The MIC values are also determined for thymol in the presence of totarol to determine the Fractional Inhibitory Concentration (FIC). This calculation accounts for the fractional activity of thymol and totarol within a MIC test. [formula] such that: [table]

[2] = test system: S. aureus; test: Minimum Inhibition Concentration (MIC) and Fractional Inhibitory Concentration (FIC) against S. aureus; assay type: cell-based; conditions: Staphylococcus aureus, single active, tryptic soy broth, 96 well plate, 16-24 hours at 37° C
Method: as §1

MIC [1] [µg/mL]	MIC [2] [µg/mL]	Structure (SMILES)
125		Cc1ccc(C(C)C)c(O)c1 [Thymol, thymol]
125	31.2	CC(C)c1c(O)ccc2c1CC[C@H]1C(C)(C)CCC[C@]21C [Totarol, totarol]
